This is an account of results in patent US20110028686A1, “Protein binding miniature proteins” (Yale University, priority 2000, published 2011).

Square brackets hold non-standard residues; d marks the D form. Peptide text beside a SMILES is read from it. * marks the point of attachment. Fluorescein(5-NHCOCH2) = O=C(C*)Nc1ccc2c(c1)C(=O)OC21c2ccc(O)cc2Oc2cc(O)ccc21; pS = N[C@@H](COP(=O)(O)O)C(=O)O; Sar = CNCC(=O)O

T1 sequence (P45481 586-665 limits assumed): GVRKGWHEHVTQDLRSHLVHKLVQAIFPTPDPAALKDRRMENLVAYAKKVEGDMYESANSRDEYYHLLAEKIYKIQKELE

The assay has as its target T1, CBP KIX wild type (Mus musculus, UniProt P45481).
T1 construct: made in house; host or cells: E. coli BL21(DE3) pArg
As to the kind of experiment: Equilibrium fluorescence polarization, wild type CBP KIX. As to conditions: 25° C. Type of assay: binding.
Molecule `CC[C@H](C)[C@H](NC(=O)[C@H](Cc1ccc(O)cc1)NC(=O)[C@H](C)NC(=O)[C@H](Cc1ccccc1)NC(=O)[C@H](COP(=O)(O)O)NC(=O)[C@H](CC(C)C)NC(=O)[C@H](CCCNC(=N)N)NC(=O)[C@H](CCCNC(=N)N)NC(=O)[C@@H](NC(=O)[C@@H]1CCCN1C(=O)[C@H](C)NC(=O)[C@H](CC(=O)O)NC(=O)[C@H](CC(=O)O)NC(=O)CNC(=O)[C@@H]1CCCN1C(=O)[C@H](Cc1ccc(O)cc1)NC(=O)[C@@H](NC(=O)[C@@H]1CCCN1C(=O)[C@H](CCC(N)=O)NC(=O)[C@H](CO)NC(=O)[C@@H]1CCCN1C(=O)CN)[C@@H](C)O)C(C)C)C(=O)N[C@@H](CC(C)C)C(=O)N[C@@H](CC(C)C)C(=O)N[C@@H](CC(=O)O)C(=O)N[C@@H](CC(C)C)C(=O)N[C@@H](Cc1ccc(O)cc1)C(=O)N[C@@H](CC(C)C)C(=O)N[C@@H](CC(=O)O)C(=O)N[C@@H](C)C(=O)N1CCC[C@H]1C(=O)NCC(=O)N[C@H](C(=O)N[C@@H](CSCC(=O)Nc1ccc2c(c1)C(=O)OC21c2ccc(O)cc2Oc2cc(O)ccc21)C(N)=O)C(C)C` [F20A] (H-GPSQPTYPGDDAPVRRL[pS]FAYILLDLYLDAPGVC(Fluorescein(5-NHCOCH2))-NH2) came in with a dissociation constant Kd of 2550 ± 250 nM.

Molecule `CC[C@H](C)[C@H](NC(=O)[C@H](Cc1ccc(O)cc1)NC(=O)[C@H](Cc1ccccc1)NC(=O)[C@H](Cc1ccccc1)NC(=O)[C@H](COP(=O)(O)O)NC(=O)[C@H](C)NC(=O)[C@H](CCCNC(=N)N)NC(=O)[C@H](CCCNC(=N)N)NC(=O)[C@@H](NC(=O)[C@@H]1CCCN1C(=O)[C@H](C)NC(=O)[C@H](CC(=O)O)NC(=O)[C@H](CC(=O)O)NC(=O)CNC(=O)[C@@H]1CCCN1C(=O)[C@H](Cc1ccc(O)cc1)NC(=O)[C@@H](NC(=O)[C@@H]1CCCN1C(=O)[C@H](CCC(N)=O)NC(=O)[C@H](CO)NC(=O)[C@@H]1CCCN1C(=O)CN)[C@@H](C)O)C(C)C)C(=O)N[C@@H](CC(C)C)C(=O)N[C@@H](CC(C)C)C(=O)N[C@@H](CC(=O)O)C(=O)N[C@@H](CC(C)C)C(=O)N[C@@H](Cc1ccc(O)cc1)C(=O)N[C@@H](CC(C)C)C(=O)N[C@@H](CC(=O)O)C(=O)N[C@@H](C)C(=O)N1CCC[C@H]1C(=O)NCC(=O)N[C@H](C(=O)N[C@@H](CSCC(=O)Nc1ccc2c(c1)C(=O)OC21c2ccc(O)cc2Oc2cc(O)ccc21)C(N)=O)C(C)C` [L17A] (H-GPSQPTYPGDDAPVRRA[pS]FFYILLDLYLDAPGVC(Fluorescein(5-NHCOCH2))-NH2) registered a Kd of 680 ± 50 nM.

`CC[C@H](C)[C@H](NC(=O)[C@H](Cc1ccc(O)cc1)NC(=O)[C@H](Cc1ccccc1)NC(=O)[C@H](Cc1ccccc1)NC(=O)[C@H](COP(=O)(O)O)NC(=O)[C@H](CC(C)C)NC(=O)[C@H](CCCNC(=N)N)NC(=O)[C@H](CCCNC(=N)N)NC(=O)[C@@H](NC(=O)[C@@H]1CCCN1C(=O)[C@H](C)NC(=O)[C@H](CC(=O)O)NC(=O)[C@H](CC(=O)O)NC(=O)CNC(=O)[C@@H]1CCCN1C(=O)[C@H](Cc1ccc(O)cc1)NC(=O)[C@@H](NC(=O)[C@@H]1CCCN1C(=O)[C@H](CCC(N)=O)NC(=O)[C@H](CO)NC(=O)[C@@H]1CCCN1C(=O)CN)[C@@H](C)O)C(C)C)C(=O)N[C@@H](CC(C)C)C(=O)N[C@@H](C)C(=O)N[C@@H](CC(=O)O)C(=O)N[C@@H](CC(C)C)C(=O)N[C@@H](Cc1ccc(O)cc1)C(=O)N[C@@H](CC(C)C)C(=O)N[C@@H](CC(=O)O)C(=O)N[C@@H](C)C(=O)N1CCC[C@H]1C(=O)NCC(=O)N[C@H](C(=O)N[C@@H](CSCC(=O)Nc1ccc2c(c1)C(=O)OC21c2ccc(O)cc2Oc2cc(O)ccc21)C(N)=O)C(C)C` [L24A] (H-GPSQPTYPGDDAPVRRL[pS]FFYILADLYLDAPGVC(Fluorescein(5-NHCOCH2))-NH2) gave an equilibrium dissociation constant (Kd) of 1160 ± 70 nM. This Kd is about 1.7-fold higher than that of the molecule before.

The molecule `CC[C@H](C)[C@H](NC(=O)[C@H](Cc1ccc(O)cc1)NC(=O)[C@H](Cc1ccccc1)NC(=O)[C@H](Cc1ccccc1)NC(=O)[C@H](COP(=O)(O)O)NC(=O)[C@H](CC(C)C)NC(=O)[C@H](CCCNC(=N)N)NC(=O)[C@H](CCCNC(=N)N)NC(=O)[C@@H](NC(=O)[C@@H]1CCCN1C(=O)[C@H](C)NC(=O)[C@H](CC(=O)O)NC(=O)[C@H](CC(=O)O)NC(=O)CNC(=O)[C@@H]1CCCN1C(=O)[C@H](Cc1ccc(O)cc1)NC(=O)[C@@H](NC(=O)[C@@H]1CCCN1C(=O)[C@H](CCC(N)=O)NC(=O)[C@H](CO)NC(=O)[C@@H]1CCCN1C(=O)CN)[C@@H](C)O)C(C)C)C(=O)N[C@@H](CC(C)C)C(=O)N[C@@H](CC(C)C)C(=O)N[C@@H](CC(=O)O)C(=O)N[C@@H](CC(C)C)C(=O)N[C@@H](Cc1ccc(O)cc1)C(=O)N[C@@H](C)C(=O)N[C@@H](CC(=O)O)C(=O)N[C@@H](C)C(=O)N1CCC[C@H]1C(=O)NCC(=O)N[C@H](C(=O)N[C@@H](CSCC(=O)Nc1ccc2c(c1)C(=O)OC21c2ccc(O)cc2Oc2cc(O)ccc21)C(N)=O)C(C)C` [L28A] (H-GPSQPTYPGDDAPVRRL[pS]FFYILLDLYADAPGVC(Fluorescein(5-NHCOCH2))-NH2) showed an equilibrium dissociation constant (Kd) of 830 ± 110 nM.

With `CC[C@H](C)[C@H](NC(=O)[C@H](Cc1ccc(O)cc1)NC(=O)[C@H](Cc1ccccc1)NC(=O)[C@H](Cc1ccccc1)NC(=O)[C@H](COP(=O)(O)O)NC(=O)[C@H](CC(C)C)NC(=O)[C@H](CCCNC(=N)N)NC(=O)[C@H](CCCNC(=N)N)NC(=O)[C@@H](NC(=O)[C@@H]1CCCN1C(=O)[C@H](C)NC(=O)[C@H](CC(=O)O)NC(=O)[C@H](CC(=O)O)NC(=O)CNC(=O)[C@@H]1CCCN1C(=O)[C@H](Cc1ccc(O)cc1)NC(=O)[C@@H](NC(=O)[C@@H]1CCCN1C(=O)[C@H](CCC(N)=O)NC(=O)[C@H](CO)NC(=O)[C@H](C)NC(=O)CN)[C@@H](C)O)C(C)C)C(=O)N[C@@H](CC(C)C)C(=O)N[C@@H](CC(C)C)C(=O)N[C@@H](CC(=O)O)C(=O)N[C@@H](CC(C)C)C(=O)N[C@@H](Cc1ccc(O)cc1)C(=O)N[C@@H](CC(C)C)C(=O)N[C@@H](CC(=O)O)C(=O)N[C@@H](C)C(=O)N1CCC[C@H]1C(=O)NCC(=O)N[C@H](C(=O)N[C@@H](CSCC(=O)Nc1ccc2c(c1)C(=O)OC21c2ccc(O)cc2Oc2cc(O)ccc21)C(N)=O)C(C)C` [P2A] (H-GASQPTYPGDDAPVRRL[pS]FFYILLDLYLDAPGVC(Fluorescein(5-NHCOCH2))-NH2), the dissociation constant (Kd) turned out to be 870 ± 40 nM.

For `CC[C@H](C)[C@H](NC(=O)[C@H](Cc1ccc(O)cc1)NC(=O)[C@H](Cc1ccccc1)NC(=O)[C@H](Cc1ccccc1)NC(=O)[C@H](COP(=O)(O)O)NC(=O)[C@H](CC(C)C)NC(=O)[C@H](CCCNC(=N)N)NC(=O)[C@H](CCCNC(=N)N)NC(=O)[C@@H](NC(=O)[C@@H]1CCCN1C(=O)[C@H](C)NC(=O)[C@H](CC(=O)O)NC(=O)[C@H](CC(=O)O)NC(=O)CNC(=O)[C@@H]1CCCN1C(=O)[C@H](Cc1ccc(O)cc1)NC(=O)[C@@H](NC(=O)[C@@H]1CCCN1C(=O)[C@H](CCC(N)=O)NC(=O)[C@H](CO)NC(=O)CN(C)C(=O)CN)[C@@H](C)O)C(C)C)C(=O)N[C@@H](CC(C)C)C(=O)N[C@@H](CC(C)C)C(=O)N[C@@H](CC(=O)O)C(=O)N[C@@H](CC(C)C)C(=O)N[C@@H](Cc1ccc(O)cc1)C(=O)N[C@@H](CC(C)C)C(=O)N[C@@H](CC(=O)O)C(=O)N[C@@H](C)C(=O)N1CCC[C@H]1C(=O)NCC(=O)N[C@H](C(=O)N[C@@H](CSCC(=O)Nc1ccc2c(c1)C(=O)OC21c2ccc(O)cc2Oc2cc(O)ccc21)C(N)=O)C(C)C` [P2Z] (H-G[Sar]SQPTYPGDDAPVRRL[pS]FFYILLDLYLDAPGVC(Fluorescein(5-NHCOCH2))-NH2), the dissociation constant Kd came to 830 ± 80 nM.

`CC[C@H](C)[C@H](NC(=O)[C@H](Cc1ccc(O)cc1)NC(=O)[C@H](Cc1ccccc1)NC(=O)[C@H](Cc1ccccc1)NC(=O)[C@H](COP(=O)(O)O)NC(=O)[C@H](CC(C)C)NC(=O)[C@H](CCCNC(=N)N)NC(=O)[C@H](CCCNC(=N)N)NC(=O)[C@@H](NC(=O)[C@@H]1CCCN1C(=O)[C@H](C)NC(=O)[C@H](CC(=O)O)NC(=O)[C@H](CC(=O)O)NC(=O)CNC(=O)[C@@H]1CCCN1C(=O)[C@H](Cc1ccc(O)cc1)NC(=O)[C@@H](NC(=O)[C@H](C)NC(=O)[C@H](CCC(N)=O)NC(=O)[C@H](CO)NC(=O)[C@@H]1CCCN1C(=O)CN)[C@@H](C)O)C(C)C)C(=O)N[C@@H](CC(C)C)C(=O)N[C@@H](CC(C)C)C(=O)N[C@@H](CC(=O)O)C(=O)N[C@@H](CC(C)C)C(=O)N[C@@H](Cc1ccc(O)cc1)C(=O)N[C@@H](CC(C)C)C(=O)N[C@@H](CC(=O)O)C(=O)N[C@@H](C)C(=O)N1CCC[C@H]1C(=O)NCC(=O)N[C@H](C(=O)N[C@@H](CSCC(=O)Nc1ccc2c(c1)C(=O)OC21c2ccc(O)cc2Oc2cc(O)ccc21)C(N)=O)C(C)C` [P5A] (H-GPSQATYPGDDAPVRRL[pS]FFYILLDLYLDAPGVC(Fluorescein(5-NHCOCH2))-NH2) had a Kd of 1020 ± 90 nM.

`CC[C@H](C)[C@H](NC(=O)[C@H](Cc1ccc(O)cc1)NC(=O)[C@H](Cc1ccccc1)NC(=O)[C@H](Cc1ccccc1)NC(=O)[C@H](COP(=O)(O)O)NC(=O)[C@H](CC(C)C)NC(=O)[C@H](CCCNC(=N)N)NC(=O)[C@H](CCCNC(=N)N)NC(=O)[C@@H](NC(=O)[C@@H]1CCCN1C(=O)[C@H](C)NC(=O)[C@H](CC(=O)O)NC(=O)[C@H](CC(=O)O)NC(=O)CNC(=O)[C@@H]1CCCN1C(=O)[C@H](Cc1ccc(O)cc1)NC(=O)[C@@H](NC(=O)CN(C)C(=O)[C@H](CCC(N)=O)NC(=O)[C@H](CO)NC(=O)[C@@H]1CCCN1C(=O)CN)[C@@H](C)O)C(C)C)C(=O)N[C@@H](CC(C)C)C(=O)N[C@@H](CC(C)C)C(=O)N[C@@H](CC(=O)O)C(=O)N[C@@H](CC(C)C)C(=O)N[C@@H](Cc1ccc(O)cc1)C(=O)N[C@@H](CC(C)C)C(=O)N[C@@H](CC(=O)O)C(=O)N[C@@H](C)C(=O)N1CCC[C@H]1C(=O)NCC(=O)N[C@H](C(=O)N[C@@H](CSCC(=O)Nc1ccc2c(c1)C(=O)OC21c2ccc(O)cc2Oc2cc(O)ccc21)C(N)=O)C(C)C` [P5Z] (H-GPSQ[Sar]TYPGDDAPVRRL[pS]FFYILLDLYLDAPGVC(Fluorescein(5-NHCOCH2))-NH2) yielded a Kd of 800 ± 30 nM.
